Measurements from patent publication US11484029B2, “Method for controlling building-inhabiting pest and composition for controlling building-inhabiting pest” (priority 2017, dated 2022).

Key:
[1] = tested on: Denken colony (susceptible strain) of German cockroach (Blattella germanica); assay: Repellency test (treated vs non-treated shelter); format: in vivo; details: 0.3 μg/cm^2, after 7 days
Method: Sample: a compound represented by Formula (2), and etofenprox (control agent)
Test insect: Denken colony (susceptible strain) of German cockroach (Blattella germanica)
Test method: A test compound diluted with acetone was treated and dried on a glass disc having a diameter of 12 cm so as to be 0.3 μg/cm^2. A pet cup having 6 cm in inner diameter×0.5 cm in height was cut so as to have an entrance, and the pet cup was turned over and placed on the glass disc to make a shelter. A non-treated shelter and a drug-treated shelter were placed in the center of an acrylic box having 30 cm×15 cm, well water and rat feed were added as food, and 15 males and 15 females of German cockroach were released. After 7 days, the number of surviving insects, the number of dead insects, the number of agonizing insects, and the habitat were examined. Further, a KD (knockdown) rate and a repellency rate were calculated by the following equations. KD rate (%)=(the number of dead insects+the number of agonizing insects)/the number of released insects×100 Repellency rate (%)=(1−the number of cockroaches in treated area/(the number of cockroaches in treated area+the number of cockroaches in non-treated area)×100

[2] = tested on: Watarida colony (susceptible strain) of German cockroach (Blattella germanica); assay: Heat volatilization test; format: in vivo; details: 1 g of sample heated at 300° C., after 15 hours
Method: Sample: a compound represented by Formula (2)
Test insect: Watarida colony (susceptible strain) of German cockroach (Blattella germanica)
After 15 hours, examination of life or death was performed on the tested cockroaches, and the fatality rate was calculated.

[3] = tested on: German cockroach (Blattella germanica); assay: Drug efficacy test, topical application (50% lethal dose); format: in vivo; details: for 50% lethal dose: female adult, topical application, mortality six days later
From the text: (§1) Test drug: a compound represented by Formula (2)
(§2) Test insect: Watarida colony (susceptible strain) of German cockroach (Blattella germanica); Hamamatsu-cho colony (resistant strain) of German cockroach (Blattella germanica); Teikyo University colony (susceptible strain) of bed bug (Cimex lectularius); and Chiba colony (resistant strain) of bed bug (Cimex lectularius),
(§3) Insecticidal test: An acetone solution of a compound represented by Formula (2) was applied to the chest of a target insect female adult by using a topical application device. The mortality was examined six days later for the German cockroach and three days later for the bed bug, and each 50% lethal dose was determined. Further, the resistance ratio was calculated by the following equation. Resistance ratio=50% lethal dose of resistant strain/50% lethal dose of susceptible strain

[4] = tested on: bed bug (Cimex lectularius); assay: as above; format: in vivo; details: for 50% lethal dose: female adult, topical application, mortality three days later
From the text: as §1, §2, §3

[5] = tested on: Denken German cockroach; assay: Forced contact with treated glass disc; format: in vivo, Blattella germanica; details: forcibly brought into contact with glass disc treated at 0.3 μg/cm^2, within 48 hours
Method: The Denken German cockroach had 100% knockdown within 48 hours when forcibly brought into contact with a glass disc that had been treated with the compound of Formula (2) and etofenprox so as to have a concentration of 0.3 μg/cm^2.

Compound | repellent effect (conclusion in words) [1] | Non-treated shelter Number of agonizing insects ([1]; Total (30 released)) | Non-treated shelter Number of dead insects ([1]; Total (30 released)) | Non-treated shelter Number of surviving insects ([1]; Total (30 released)) | Outside the area Number of agonizing insects ([1]; Total (30 released)) | Outside the area Number of dead insects ([1]; Total (30 released)) | Outside the area Number of surviving insects ([1]; Total (30 released)) | Treated shelter Number of agonizing insects ([1]; Total (30 released)) | Treated shelter Number of dead insects ([1]; Total (30 released)) | Treated shelter Number of surviving insects ([1]; Total (30 released)) | KD rate ([1]; Total) | Non-treated shelter Number of agonizing insects ([1]; female (15 released)) | Non-treated shelter Number of dead insects ([1]; female (15 released)) | Non-treated shelter Number of surviving insects ([1]; female (15 released)) | Outside the area Number of agonizing insects ([1]; female (15 released)) | Outside the area Number of dead insects ([1]; female (15 released)) | Outside the area Number of surviving insects ([1]; female (15 released)) | Treated shelter Number of agonizing insects ([1]; female (15 released)) | Treated shelter Number of dead insects ([1]; female (15 released)) | Treated shelter Number of surviving insects ([1]; female (15 released)) | also measured
CN(C(=O)c1ccccc1)c1cccc(C(=O)Nc2c(Br)cc(C(F)(C(F)(F)F)C(F)(F)F)cc2C(F)(F)F)c1F [Compound represented by Formula (2), 2-fluoro-3-(N-methylbenzamide)-N-(2-bromo-6-trifluoromethyl-4-(heptafluoropropane-2-yl)phenyl)benzamide] | has no repellent effect | 0 | 0 | 0 | 3 | 27 | 0 | 0 | 0 | 0 | 100% | 0 | 0 | 0 | 2 | 13 | 0 | 0 | 0 | 0 | KD rate ([1]; female): 100%; Non-treated shelter Number of agonizing insects ([1]; male (15 released)): 0; Non-treated shelter Number of dead insects ([1]; male (15 released)): 0; Non-treated shelter Number of surviving insects ([1]; male (15 released)): 0; Outside the area Number of agonizing insects ([1]; male (15 released)): 1; Outside the area Number of dead insects ([1]; male (15 released)): 14; Outside the area Number of surviving insects ([1]; male (15 released)): 0; Treated shelter Number of agonizing insects ([1]; male (15 released)): 0; Treated shelter Number of dead insects ([1]; male (15 released)): 0; Treated shelter Number of surviving insects ([1]; male (15 released)): 0; KD rate ([1]; male): 100%; fatality rate ([2]; inside the slit box): 100%; fatality rate ([2]; outside the slit box): 100%; Resistance ratio ([3]; 50% lethal dose of resistant strain (Hamamatsu-cho)/susceptible strain (Watarida)): 1.9; 50% lethal dose ([3]; Hamamatsu-cho colony (resistant strain)): 21.5 ng/insect; 50% lethal dose ([3]; Watarida colony (susceptible strain)): 11.2 ng/insect; Resistance ratio ([4]; 50% lethal dose of resistant strain (Chiba)/susceptible strain (Teikyo University)): 11.4; 50% lethal dose ([4]; Chiba colony (resistant strain)): 14.8 ng/insect; 50% lethal dose ([4]; Teikyo University colony (susceptible strain)): 1.3 ng/insect; knockdown [5]: 100%
CCOc1ccc(C(C)(C)COCc2cccc(Oc3ccccc3)c2)cc1 [Etofenprox, etofenprox] | has a repellent effect | 0 | 0 | 29 | 0 | 1 | 0 | 0 | 0 | 0 | 3% | 0 | 0 | 15 | 0 | 0 | 0 | 0 | 0 | 0 | Repellency rate ([1]; Total): 100%; KD rate ([1]; female): 0%; Repellency rate ([1]; female): 100%; Non-treated shelter Number of agonizing insects ([1]; male (15 released)): 0; Non-treated shelter Number of dead insects ([1]; male (15 released)): 0; Non-treated shelter Number of surviving insects ([1]; male (15 released)): 14; Outside the area Number of agonizing insects ([1]; male (15 released)): 0; Outside the area Number of dead insects ([1]; male (15 released)): 1; Outside the area Number of surviving insects ([1]; male (15 released)): 0; Treated shelter Number of agonizing insects ([1]; male (15 released)): 0; Treated shelter Number of dead insects ([1]; male (15 released)): 0; Treated shelter Number of surviving insects ([1]; male (15 released)): 0; KD rate ([1]; male): 7%; Repellency rate ([1]; male): 100%; Resistance ratio ([4]; etofenprox to bed bugs, strains not stated): ≥ 10000; knockdown [5]: 100%
